Measured values: patent US10030047B2 (Hoffmann-La Roche Inc., priority 2015, dated 2018)
≈ marks a conversion by molar mass, not a printed value.

Test system: A. baumannii strain ATCC19606
Experiment: Minimum inhibitory concentration (MIC) determination, microbroth dilution (CLSI)
Format: cell-based
Conditions: Acinetobacter baumannii; A. baumannii ATCC19606; CAMHB; read after 20 hours; >=80% growth inhibition; read-out: ATCC19606 MIC
Procedure, shortened: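 After 20 h at 35±2 °C, MIC taken visually and by OD 600 nm as the lowest concentration giving ≥80% growth inhibition. Bacteria (~5×10^5 CFU/ml) were tested per CLSI microbroth dilution against twofold serial compound dilutions in cation-adjusted Mueller Hinton broth.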

Row | SMILES | MIC [µg/mL]
1 | CN1C(=O)[C@H](CCCCN)NC(=O)[C@H](CCC(N)=O)NCc2cccnc2Sc2c(Cl)cc(Cl)cc2CNC(=O)[C@@H]1Cc1c[nH]c2ccccc12 [Example 103, 3-[(11S,14S,17S)-14-(4-Amino-butyl)-23,25-dichloro-17-(1H-indol-3-ylmethyl)-16-methyl-12,15,18-trioxo-2-thia-4,10,13,16,19-pentaaza-tricyclo[19.4.0.0*3,8*]pentacosa-1(25),3,5,7,21,23-hexaen-11-yl]-propionamide] | 0.25 (≈ 0.332 µM)
2 | CN1C(=O)[C@H](CCCCN)NC(=O)[C@H](CCCN)NCc2cccnc2Sc2c(Cl)ccc(-c3ccnc(F)c3)c2CNC(=O)[C@@H]1Cc1c[nH]c2ccccc12 [Example 222, (11S,14S,17S)-14-(4-Amino-butyl)-11-(3-amino-propyl)-25-chloro-22-(2-fluoro-pyridin-4-yl)-17-(1H-indol-3-ylmethyl)-16-methyl-2-thia-4,10,13,16,19-pentaaza-tricyclo[19.4.0.0*3,8*]pentacosa-1(25),3(8),4,6,21,23hexaene-12,15,18-trione] | 0.12 (≈ 0.15 µM)
3 | CN1C(=O)[C@H](CCCCN)NC(=O)[C@H](CCC(N)=O)NCc2cccnc2Sc2c(Cl)ccc(-c3cccnc3)c2CNC(=O)[C@@H]1Cc1c[nH]c2ccccc12 [Example 221, 3-[(11S,14S,17S)-14-(4-Amino-butyl)-25-chloro-17-(1H-indol-3-ylmethyl)-16-methyl-12,15,18-trioxo-22-pyridin-3-yl-2-thia-4,10,13,16,19-pentaaza-tricyclo[19.4.0.0*3,8*]pentacosa-1(25),3(8),4,6,21,23-hexaen-11-yl]-propionamide] | 0.25 (≈ 0.314 µM)
4 | CN1C(=O)[C@H](CCCCN)NC(=O)[C@H](CCCN)NCc2ccccc2Sc2c(Cl)cc(Cl)cc2CNC(=O)[C@@H]1Cc1c[nH]c2ccccc12 [Example 42, (12S,15S,18S)-15-(4-Amino-butyl)-18-(3-amino-propyl)-4,6-dichloro-12-(1H-indol-3-ylmethyl)-13-methyl-2-thia-10,13,16,19-tetraaza-tricyclo[19.4.0.0*3,8*]pentacosa-1(25),3,5,7,21,23-hexaene-11,14,17-trione] | 1 (≈ 1.35 µM)
5 | CNCCCC[C@@H]1NCc2ccccc2Sc2c(Cl)cccc2CNC(=O)[C@H](Cc2c[nH]c3ccccc23)N(C)C(=O)[C@H](CCCCN)NC1=O [Example 48, (12S,15S,18S)-15-(4-Amino-butyl)-4-chloro-12-(1H-indol-3-ylmethyl)-13-methyl-18-(4-methylamino-butyl)-2-thia-10,13,16,19-tetraaza-tricyclo[19.4.0.0*3,8*]pentacosa-1(21),3,5,7,22,24-hexaene-11,14,17-trione] | 2 (≈ 2.73 µM)
6 | CN1C(=O)[C@H](CCCCN)NC(=O)[C@H](CCCN)NCc2ccccc2Sc2cccc(Cl)c2CNC(=O)[C@@H]1Cc1c[nH]c2ccccc12 [Example 22, (12S,15S,18S)-15-(4-Amino-butyl)-18-(3-amino-propyl)-7-chloro-12-(1H-indol-3-ylmethyl)-13-methyl-2-thia-10,13,16,19-tetraaza-tricyclo[19.4.0.0*3,8*]pentacosa-1(25),3,5,7,21,23-hexaene-11,14,17-trione] | 32 (≈ 45.4 µM)
7 | CCN1C(=O)[C@H](CCCCN)NC(=O)[C@H](CCCN)NCc2cccnc2Sc2c(Cl)ccc(Cl)c2CNC(=O)[C@@H]1Cc1c[nH]c2ccccc12 [Example 78, (11S,14S,17S)-14-(4-Amino-butyl)-11-(3-amino-propyl)-22,25-dichloro-16-ethyl-17-(1H-indol-3-ylmethyl)-2-thia-4,10,13,16,19-pentaaza-tricyclo[19.4.0.0*3,8*]pentacosa-1(25),3(8),4,6,21,23-hexaene-12,15,18-trione] | 0.25 (≈ 0.332 µM)
8 | CN1C(=O)[C@H](COCCN)NC(=O)[C@H](CCCN)NCc2cccnc2Sc2c(Cl)ccc(C(F)(F)F)c2CNC(=O)[C@@H]1Cc1c[nH]c2ccccc12 [Example 120, (11S,14S,17S)-14-(2-Amino-ethoxymethyl)-11-(3-amino-propyl)-25-chloro-17-(1H-indol-3-ylmethyl)-16-methyl-22-trifluoromethyl-2-thia-4,10,13,16,19-pentaaza-tricyclo[19.4.0.0*3,8*]pentacosa-1(25),3,5,7,21,23-hexaene-12,15,18-trione] | 0.5 (≈ 0.645 µM)
9 | CN1C(=O)[C@H](CCCCN)NC(=O)[C@H](CCCN)NCc2cccnc2Sc2c(Cl)cc(-c3ccc(C#N)cc3)cc2CNC(=O)[C@@H]1Cc1c[nH]c2ccccc12 [Example 211, 4-[(11S,14S,17S)-14-(4-Amino-butyl)-11-(3-amino-propyl)-25-chloro-17-(1H-indol-3-ylmethyl)-16-methyl-12,15,18-trioxo-2-thia-4,10,13,16,19-pentaaza-tricyclo[19.4.0.0*3,8*]pentacosa-1(25),3(8),4,6,21,23-hexaen-23-yl]-benzonitrile] | 16 (≈ 19.8 µM)
10 | CN1C(=O)[C@H](CCCCN)NC(=O)[C@H](CCC(N)=O)NCc2cccnc2Sc2c(Cl)cc(-c3ccccn3)cc2CNC(=O)[C@@H]1Cc1c[nH]c2ccccc12 [Example 163, 3-[(11S,14S,17S)-14-(4-Amino-butyl)-25-chloro-17-(1H-indol-3-ylmethyl)-16-methyl-12,15,18-trioxo-23-pyridin-2-yl-2-thia-4,10,13,16,19-pentaaza-tricyclo[19.4.0.0*3,8*]pentacosa-1(25),3(8),4,6,21,23-hexaen-1-yl]-propionamide] | 4 (≈ 5.02 µM)
11 | Cc1[nH]c2ccccc2c1C[C@H]1C(=O)NCc2ccccc2Sc2ccccc2CN[C@@H](CCCN)C(=O)N[C@@H](CCCCN)C(=O)N1C [Example 32, (12S,15S,18S)-15-(4-Amino-butyl)-18-(3-amino-propyl)-13-methyl-12-(2-methyl-1H-indol-3-ylmethyl)-2-thia-10,13,16,19-tetraaza-tricyclo[19.4.0.0*3,8*]pentacosa-1(21),3,5,7,22,24-hexaene-11,14,17-trione] | 2 (≈ 2.92 µM)
12 | Cc1[nH]c2ccccc2c1C[C@H]1C(=O)NCc2cc(Cl)ccc2Sc2ccccc2CN[C@@H](CCCN)C(=O)N[C@@H](CCCCN)C(=O)N1C [Example 57, (12S,15S,18S)-15-(4-Amino-butyl)-18-(3-amino-propyl)-6-chloro-13-methyl-12-(2-methyl-1H-indol-3-ylmethyl)-2-thia-10,13,16,19-tetraaza-tricyclo[19.4.0.0*3,8*]pentacosa-1(21),3,5,7,22,24-hexaene-11,14,17-trione] | 0.5 (≈ 0.696 µM)
13 | CN1C(=O)[C@H](CCCCN)NC(=O)[C@H](CCCN)NCc2ccccc2Sc2ccc(C(C)(C)C)cc2CNC(=O)[C@@H]1Cc1c[nH]c2ccccc12 [Example 70, (12S,15S,18S)-15-(4-Amino-butyl)-18-(3-amino-propyl)-6-tert-butyl-12-(1H-indol-3-ylmethyl)-13-methyl-2-thia-10,13,16,19-tetraaza-tricyclo[19.4.0.0*3,8*]pentacosa-1(25),3,5,7,21,23-hexaene-11,14,17-trione] | 2 (≈ 2.75 µM)
14 | CC(C)c1ccc2c(c1)CNC(=O)[C@H](Cc1c[nH]c3ccccc13)N(C)C(=O)[C@H](CCCCN)NC(=O)[C@H](CCCN)NCc1ccccc1S2 [Example 72, (12S,15S,18S)-15-(4-Amino-butyl)-18-(3-amino-propyl)-12-(1H-indol-3-ylmethyl)-6-isopropyl-13-methyl-2-thia-10,13,16,19-tetraaza-tricyclo[19.4.0.0*3,8*]pentacosa-1(25),3,5,7,21,23-hexaene-11,14,17-trione] | 64 (≈ 89.9 µM)
15 | Cc1n[nH]c(C)c1-c1cc(Cl)c2c(c1)CNC(=O)[C@H](Cc1c[nH]c3ccccc13)N(C)C(=O)[C@H](CCCCN)NC(=O)[C@H](CCCN)NCc1cccnc1S2 [Example 175, (11S,14S,17S)-14-(4-Amino-butyl)-11-(3-amino-propyl)-25-chloro-23-(3,5-dimethyl-1H-pyrazol-4-yl)-17-(1H-indol-3-ylmethyl)-16-methyl-2-thia-4,10,13,16,19-pentaaza-tricyclo[19.4.0.0*3,8*]pentacosa-1(25),3(8),4,6,21,23-hexaene-12,15,18-trione] | 2 (≈ 2.5 µM)
16 | CN1C(=O)[C@H](CCCCN)NC(=O)[C@H](CCCN)NCc2cccnc2Sc2c(Cl)cc(-c3ccc(N)nc3)cc2CNC(=O)[C@@H]1Cc1c[nH]c2ccccc12 [Example 109, (11S,14S,17S)-14-(4-Amino-butyl)-11-(3-amino-propyl)-23-(6-amino-pyridin-3-yl)-25-chloro-17-(1H-indol-3-ylmethyl)-16-methyl-2-thia-4,10,13,16,19-pentaaza-tricyclo[19.4.0.0*3,8*]pentacosa-1(25),3(8),4,6,21,23-hexaene-12,15,18-trione] | 2 (≈ 2.51 µM)
17 | Cc1cccc2c1Sc1ccccc1CN[C@@H](CCCN)C(=O)N[C@@H](CCCCN)C(=O)N(C)[C@@H](Cc1c(C)[nH]c3ccccc13)C(=O)NC2 [Example 58, (12S,15S,18S)-15-(4-Amino-butyl)-18-(3-amino-propyl)-4,13-dimethyl-12-(2-methyl-1H-indol-3-ylmethyl)-2-thia-10,13,16,19-tetraaza-tricyclo[19.4.0.0*3,8*]pentacosa-1(21),3,5,7,22,24-hexaene-11,14,17-trione] | 0.5 (≈ 0.716 µM)
18 | CN1C(=O)[C@H](CCCCN)NC(=O)[C@H](CCCN)NCc2cccnc2Sc2c(Cl)cc(-c3ccnnc3)cc2CNC(=O)[C@@H]1Cc1c[nH]c2ccccc12 [Example 148, (11S,14S,17S)-14-(4-Amino-butyl)-11-(3-amino-propyl)-25-chloro-17-(1H-indol-3-ylmethyl)-16-methyl-23-pyridazin-4-yl-2-thia-4,10,13,16,19-pentaaza-tricyclo[19.4.0.0*3,8*]pentacosa-1(25),3(8),4,6,21,23-hexaene-12,15,18-trione] | 8 (≈ 10.2 µM)
19 | CN1C(=O)[C@H](CCCCN)NC(=O)[C@H](CCCN)NCc2cccnc2Sc2c(Cl)cc(-c3ccnc(N)c3)cc2CNC(=O)[C@@H]1Cc1c[nH]c2ccccc12 [Example 223, (11S,14S,17S)-14-(4-Amino-butyl)-11-(3-amino-propyl)-23-(2-amino-pyridin-4-yl)-25-chloro-17-(1H-indol-3-ylmethyl)-16-methyl-2-thia-4,10,13,16,19-pentaaza-tricyclo[19.4.0.0*3,8*]pentacosa-1(21),3,5,7,22,24-hexaene-12,15,18-trione] | 1 (≈ 1.25 µM)
